# Patent publication US20260184675A1, “CHIRAL ISOMERIC SULFITE COMPOUND AND APPLICATION THEREOF” (Chengdu Hanova BioSciences Co., Ltd, priority 2024, published 2026)
# Experiments:
# [1] = system: pest eggs of Tetranychus cinnabarinus; assay: Effect on hatching of pest eggs of Tetranychus cinnabarinus, leaf disc method; assay type: in vivo; conditions: for Hatching rate (%): 7 days after insecticide delivery; for inhibitory effect on the hatching of pest eggs of Tetranychus cinnabarinus (in words): 1 ppm
# How it was run: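 Adult female mites laid eggs on 2.0 cm Vicia faba leaf discs for up to 36 h; discs with counted eggs were dipped 10 s in compound solution or water, then kept moist. Hatched eggs were counted 7 days after treatment and control effect was calculated by formula.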
# [2] = system: eggs of Spodoptera litura; assay: Effect on hatching of eggs of Spodoptera litura, egg piece soaking; assay type: in vivo; conditions: 500 ppm; for Hatching rate (%), Replicate 1 / Hatching rate (%), Replicate 2 / Hatching rate (%), Replicate 3 / Number of unhatched larvae 4 days after insecticide delivery, Replicate 1 / Number of unhatched larvae 4 days after insecticide delivery, Replicate 2 / Number of unhatched larvae 4 days after insecticide delivery, Replicate 3: Spodoptera litura eggs; for Hatching rate (%), Replicate 1 / Hatching rate (%), Replicate 2 / Hatching rate (%), Replicate 3: 4 days after delivery; for Number of unhatched larvae 4 days after insecticide delivery, Replicate 1 / Number of unhatched larvae 4 days after insecticide delivery, Replicate 2 / Number of unhatched larvae 4 days after insecticide delivery, Replicate 3: soaked 10 minutes
# How it was run: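 Egg pieces of about 60 eggs were soaked 10 min in test agent at 500 ppm, blotted, then held singly at 24±1 °C, 80±10% RH, 12:12 L:D. Hatched and unhatched eggs were counted on day 4 to give hatching rate and control effect; 3 replicates.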
# Magnaporthe grisea = assay type: cell-based; conditions: 100 ppm; for Average antifungal rate (%) / Antifungal rate of Magnaporthe grisea (%), Replicate 1 / Antifungal rate of Magnaporthe grisea (%), Replicate 2 / Antifungal rate of Magnaporthe grisea (%), Replicate 3: 96-well plate; for Average antifungal rate (%): average of 3 replicates
Structure (SMILES),"Hatching rate (%) ([1]; 0.25 mg/L, Replicate 1)","Hatching rate (%) ([1]; 0.25 mg/L, Replicate 2)","Number of hatched larvae 7 days after insecticide delivery ([1]; 0.25 mg/L, Replicate 1)","Number of hatched larvae 7 days after insecticide delivery ([1]; 0.25 mg/L, Replicate 2)","Hatching rate (%) ([1]; 0.5 mg/L, Replicate 1)","Hatching rate (%) ([1]; 0.5 mg/L, Replicate 2)","Number of hatched larvae 7 days after insecticide delivery ([1]; 0.5 mg/L, Replicate 1)","Number of hatched larvae 7 days after insecticide delivery ([1]; 0.5 mg/L, Replicate 2)","Hatching rate (%) ([1]; 1 mg/L, Replicate 1)","Hatching rate (%) ([1]; 1 mg/L, Replicate 2)","Number of hatched larvae 7 days after insecticide delivery ([1]; 1 mg/L, Replicate 1)","Number of hatched larvae 7 days after insecticide delivery ([1]; 1 mg/L, Replicate 2)","Hatching rate (%), Replicate 1 [2]","Hatching rate (%), Replicate 2 [2]","Hatching rate (%), Replicate 3 [2]","Number of unhatched larvae 4 days after insecticide delivery, Replicate 1 [2]","Number of unhatched larvae 4 days after insecticide delivery, Replicate 2 [2]","Number of unhatched larvae 4 days after insecticide delivery, Replicate 3 [2]",inhibitory rate against Magnaporthe grisea (in words) (Magnaporthe grisea),Average antifungal rate (%) (Magnaporthe grisea),further results
CC(C)(COc1ccc(Cl)cc1Cl)OS(=O)OCCF (stereo not shown) [Compound S-10],39.51%,41.79%,49,39,4.62%,3.39%,62,57,0.00%,0.00%,78,84,21.43%,22.86%,24.19%,44,54,47,strong inhibitory rate,98.62%,"inhibitory effect on the hatching of pest eggs of Tetranychus cinnabarinus (in words) [1]: excellent inhibitory effects; inhibitory activity on the hatching of eggs of Spodoptera litura (in words) [2]: good inhibitory activities; Antifungal rate of Magnaporthe grisea (%), Replicate 1 (Magnaporthe grisea): 98.63%; Antifungal rate of Magnaporthe grisea (%), Replicate 2 (Magnaporthe grisea): 99.72%; Antifungal rate of Magnaporthe grisea (%), Replicate 3 (Magnaporthe grisea): 97.51%"
CC(C)(COS(=O)OCCF)Oc1ccc(Cl)cc1Cl (stereo not shown) [R-10′],74.07%,76.79%,21,13,42.86%,45.07%,36,39,8.47%,7.46%,54,62,61.82%,62.07%,63.64%,21,22,24,strong inhibitory rate,82.60%,"Antifungal rate of Magnaporthe grisea (%), Replicate 1 (Magnaporthe grisea): 82.71%; Antifungal rate of Magnaporthe grisea (%), Replicate 2 (Magnaporthe grisea): 81.95%; Antifungal rate of Magnaporthe grisea (%), Replicate 3 (Magnaporthe grisea): 83.14%"
CC(C)(COS(=O)OCCF)Oc1ccc(Cl)cc1Cl (stereo not shown) [S-10′],42.11%,43.77%,44,37,7.95%,6.12%,81,46,0.00%,0.00%,59,84,22.03%,21.88%,21.67%,46,50,47,strong inhibitory rate,99.31%,"inhibitory effect on the hatching of pest eggs of Tetranychus cinnabarinus (in words) [1]: excellent inhibitory effects; inhibitory activity on the hatching of eggs of Spodoptera litura (in words) [2]: good inhibitory activities; Antifungal rate of Magnaporthe grisea (%), Replicate 1 (Magnaporthe grisea): 100.03%; Antifungal rate of Magnaporthe grisea (%), Replicate 2 (Magnaporthe grisea): 99.64%; Antifungal rate of Magnaporthe grisea (%), Replicate 3 (Magnaporthe grisea): 98.27%"
